# Source: a melting point compilation (Tetko et al.; mined from patent text by program, amines drawn as free bases though some values may be those of a salt)
row,Compound,melting point
1,CCCCc1oc2ccccc2c1C(=O)Nc1ccc2c(Br)c(OCC(=O)OC)ccc2c1,179 to 181 °C
2,CN1C(=O)[C@H](NC(=O)/C=C/c2ccc(Cl)cc2Cl)N=C(c2ccccc2)c2ccccc21,137 to 139 °C
3,O=Cc1cccc2cc(C(=O)OCc3ccccc3)[nH]c12,62 °C
4,CCCN1NC(c2ccc(Cl)cc2)C2=C1C(=Cc1ccc(Cl)cc1)CSC2 (stereo unspecified),192 to 194 °C
5,Cc1cccc(C)c1OCC(=O)NC(Cc1ccccc1)C(O)CC(N)Cc1ccccc1 (stereo unspecified),131 °C
6,COc1ccc(C(=O)C=C2CCCN2)cc1,134 to 135 °C
7,COC(=O)C(=CN(C)C)N(C)c1cccc(-c2ccc(Cl)cc2)n1,101 °C
8,c1ccc2c(c1)CCC(n1cncn1)C21OCCO1 (stereo unspecified),108 °C
9,OC(CCc1cccnc1)CSc1ccc(C2CCCCC2)cc1 (stereo unspecified),49 °C
10,COc1cn(-c2ccccc2F)nc(C(=O)N(C)OC)c1=O,152 to 154 °C
11,CC(CCCO)C1CC=C2C3=C(CCC21C)C1(C)CCC(O)C(C)(C)C1CC3 (stereo unspecified),203 to 208 °C
12,CC(=O)Nc1ccccc1CC1NC(=O)NC1=O (stereo unspecified),200 to 202 °C
13,COC(=O)c1cc(=O)c2cc(SC)ccc2[nH]1,264 to 266 °C
14,O=C(c1ccc(Cn2ccc3ccccc32)cc1)N1CCC(N2CCCC2)C1 (stereo unspecified),141 to 153 °C
15,CN1C(=O)C=C(c2cccc(Cl)c2)C1=O,111 to 113 °C
16,CCCCc1nn(-c2ccc(C(F)(F)F)cn2)cc1/C=C/C(=O)OCC,84 to 85 °C
17,CCC(C)C[C@@H]1O[C@H](CC(=O)Nc2ccc(OC(F)(F)C(=O)O)cc2)C(=O)N(CC(C)(C)CO)c2ccc(Cl)cc21 (stereo partly specified),149 to 150 °C
18,COc1nc2cc(F)ccc2nc1Cl,93 to 95 °C
19,N#Cc1c(Cl)ccnc1Cl,107 to 109 °C
20,O=C(c1cc2cccc(NS(=O)(=O)c3cccs3)c2[nH]1)N(Cc1ccccc1)Cc1ccccc1,198 to 199 °C
21,CCCC(C(C)C)C(CN)CC(=O)O (stereo unspecified),160 to 170 °C

row,Compound,melting point
1,CCCCCCCCCCCCCCCCCCN(C)[Si](C)(C)C,35 to 40 °C
2,O=C(O)C[C@@H](c1cc(F)cc(F)c1)C(F)(F)F,73 to 75 °C
3,CCOc1ccc(N=Cc2cc(OC)c(OC)c(OC)c2)cc1,75 to 77 °C
4,COc1ccccc1Oc1c(NS(=O)(=O)c2c(C)noc2C)nc(N2CCOCC2)nc1OCCO,144 to 147 °C
5,CCCc1c(OCCCOc2ccc3c(c2)CCC(CC(=O)O)C3=O)ccc(C(C)=O)c1O (stereo unspecified),123 to 125 °C
6,CN(C)C(=O)Cc1ccccc1Nc1c(F)c(F)cc(F)c1F,109 to 110 °C
7,Nc1ccc2ncnc(Nc3cc(Cl)c(Cl)cc3F)c2c1,265 °C
8,CCOC(=O)c1cnn(C)c1C(=O)Nc1ccc2nc(N(C)C)nn2c1,194 °C
9,CN1CCN(Cc2c(O)ccc3c2OCO3)CC1,85 to 87 °C
10,Cn1cc(CO)c(=O)c2ccc(Cl)cc21,204 to 206 °C
11,O=c1c(N2CCCNCC2)nc2ccccc2n1-c1cccc(F)c1,128 to 129 °C
12,CC(C)(C)C(NC(=O)c1ccc(Cl)cc1)NC(=NC#N)NCc1cccnc1 (stereo unspecified),188 to 189 °C
13,O=C1C(=C(O)C(F)(F)F)CCc2ccccc21,48 to 49 °C
14,CC(O)CSC(=S)Nc1ccccn1 (stereo unspecified),78 °C
15,CCOCCOc1ccccc1-c1cc(=O)c2cc(C(=O)O)ccc2o1,198 to 200 °C
16,CCN1CCN(CC(=O)OCCOC)C(=O)c2ccc(Nc3ncc(Cl)c(Nc4ccccc4C(=O)NC)n3)cc21,198 to 202 °C
17,Cc1cc2c(c(C)c1N)C(c1ccc(C(C)C)cc1)CS2 (stereo unspecified),121 to 122 °C
18,Cc1cc2cc(N(C(=O)Nc3ccc(F)cc3F)c3ccccc3Cl)c(=O)oc2cc1C,212 to 214 °C
19,CCOC(=O)c1cnc2c(SC(=O)N(C)C)cccn2c1=O,133 to 134 °C
20,Cc1nc(-c2ccc(C(F)(F)F)cc2)sc1CN(C)c1ccc(OCC(=O)O)c(F)c1,113 to 114 °C
